From the supplement of paper PMC10883282

Tests used:
Assay in all cases: relative viability vs DMSO control (72 h) (fraction); higher = more viable cells
[1] = tested on: SYO-1
Procedure, shortened: (§1)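 Relative viability is percent growth read by ATPLite and averaged over up to triplicate wells. Sarcoma cells were seeded in 384-well plates to reach 80–90% confluence and given 2.5 µl of serially diluted compound after 24 h, from source plates of 10 mM to 0.0002 mM. Incubation lasted 72 h at 37 °C, 5% CO2, with 0.1% DMSO vehicle and a 5 µM positive control, and the data were rescaled so 1 equals full and 0 equals none.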

[2] = tested on: SK-LMS-1
Procedure, shortened: as §1

[3] = tested on: RD
Procedure, shortened: as §1

[4] = tested on: HS729
Procedure, shortened: as §1

[5] = tested on: SK-ES-1
Procedure, shortened: as §1

[6] = tested on: A204
Procedure, shortened: as §1

[7] = tested on: VA-ES-BJ
Procedure, shortened: as §1

[8] = tested on: KHOS-NP
Procedure, shortened: as §1

[9] = tested on: SW872
Procedure, shortened: as §1

[10] = tested on: MES-SA
Procedure, shortened: as §1

[11] = tested on: G401
Procedure, shortened: as §1

[12] = tested on: SW684
Procedure, shortened: as §1

COc1cc2c(Oc3ccc4[nH]c(C)cc4c3F)ccnc2cc1OCC1(N)CC1 [Anlotinib]
Settings | relative viability
[1], 0.00017 µM | 0.921
[1], 0.00051 µM | 0.923
[1], 0.00152 µM | 0.92
[1], 0.00457 µM | 0.884
[1], 0.01372 µM | 0.856
[1], 0.04115 µM | 0.817
[1], 0.1235 µM | 0.679
[1], 0.3704 µM | 0.529
[1], 1.111 µM | 0.46
[1], 3.333 µM | 0.328
[1], 10 µM | 0.115
[2], 0.00017 µM | 1.08
[2], 0.00051 µM | 1.06
[2], 0.00152 µM | 1.08
[2], 0.00457 µM | 1.05
[2], 0.01372 µM | 1.06
[2], 0.04115 µM | 1.05
[2], 0.1235 µM | 1.04
[2], 0.3704 µM | 1.03
[2], 1.111 µM | 0.85
[2], 3.333 µM | 0.416
[2], 10 µM | 0.0427
[3], 0.00017 µM | 1.06
[3], 0.00051 µM | 1.06
[3], 0.00152 µM | 1.08
[3], 0.00457 µM | 1.07
[3], 0.01372 µM | 1.06
[3], 0.04115 µM | 1.09
[3], 0.1235 µM | 1.07
[3], 0.3704 µM | 1.04
[3], 1.111 µM | 0.946
[3], 3.333 µM | 0.594
[3], 10 µM | 0.217
[4], 0.00017 µM | 0.944
[4], 0.00051 µM | 0.908
[4], 0.00152 µM | 0.951
[4], 0.00457 µM | 0.917
[4], 0.01372 µM | 0.935
[4], 0.04115 µM | 0.909
[4], 0.1235 µM | 0.911
[4], 0.3704 µM | 0.795
[4], 1.111 µM | 0.769
[4], 3.333 µM | 0.678
[4], 10 µM | 0.383
[5], 0.00017 µM | 1.05
[5], 0.00051 µM | 1.053
[5], 0.00152 µM | 1.04
[5], 0.00457 µM | 1.03
[5], 0.01372 µM | 1.07
[5], 0.04115 µM | 1.09
[5], 0.1235 µM | 1.09
[5], 0.3704 µM | 1.07
[5], 1.111 µM | 0.958
[5], 3.333 µM | 0.104
[5], 10 µM | 0.0396
[6], 0.00017 µM | 1.08
[6], 0.00051 µM | 1.08
[6], 0.00152 µM | 1.05
[6], 0.00457 µM | 1.05
[6], 0.01372 µM | 1.05
[6], 0.04115 µM | 0.997
[6], 0.1235 µM | 0.829
[6], 0.3704 µM | 0.475
[6], 1.111 µM | 0.36
[6], 3.333 µM | 0.18
[6], 10 µM | 0.0656
[7], 0.00017 µM | 0.975
[7], 0.00051 µM | 0.993
[7], 0.00152 µM | 0.987
[7], 0.00457 µM | 0.979
[7], 0.01372 µM | 0.977
[7], 0.04115 µM | 0.978
[7], 0.1235 µM | 0.997
[7], 0.3704 µM | 1.022
[7], 1.111 µM | 0.983
[7], 3.333 µM | 0.62
[7], 10 µM | 0.505
[8], 0.00017 µM | 1.06
[8], 0.00051 µM | 1.06
[8], 0.00152 µM | 1.06
[8], 0.00457 µM | 1.06
[8], 0.01372 µM | 1.07
[8], 0.04115 µM | 1.05
[8], 0.1235 µM | 1.04
[8], 0.3704 µM | 1.05
[8], 1.111 µM | 1.04
[8], 3.333 µM | 0.735
[8], 10 µM | 0.264
[9], 0.00017 µM | 0.962
[9], 0.00051 µM | 1.01
[9], 0.00152 µM | 0.985
[9], 0.00457 µM | 1
[9], 0.01372 µM | 1.02
[9], 0.04115 µM | 0.996
[9], 0.1235 µM | 1.01
[9], 0.3704 µM | 1
[9], 1.111 µM | 0.957
[9], 3.333 µM | 0.676
[9], 10 µM | 0.437
[10], 0.00017 µM | 0.921
[10], 0.00051 µM | 0.9145
[10], 0.00152 µM | 0.918
[10], 0.00457 µM | 0.9154
[10], 0.01372 µM | 0.947
[10], 0.04115 µM | 0.949
[10], 0.1235 µM | 0.924
[10], 0.3704 µM | 0.951
[10], 1.111 µM | 0.841
[10], 3.333 µM | 0.271
[10], 10 µM | 0.115
[11], 0.00017 µM | 0.964
[11], 0.00051 µM | 0.986
[11], 0.00152 µM | 1.01
[11], 0.00457 µM | 0.988
[11], 0.01372 µM | 0.976
[11], 0.04115 µM | 0.982
[11], 0.1235 µM | 0.955
[11], 0.3704 µM | 0.89
[11], 1.111 µM | 0.773
[11], 3.333 µM | 0.445
[11], 10 µM | 0.163
[12], 0.00017 µM | 1.15
[12], 0.00051 µM | 1.09
[12], 0.00152 µM | 1.11
[12], 0.00457 µM | 1.11
[12], 0.01372 µM | 1.12
[12], 0.04115 µM | 1.14
[12], 0.1235 µM | 1.13
[12], 0.3704 µM | 1.11
[12], 1.111 µM | 1.07
[12], 3.333 µM | 0.847
[12], 10 µM | 0.502
